Measured values from paper PMC3416781, “Functional Characterizations of Chemosensory Proteins of the Alfalfa Plant Bug Adelphocoris lineolatus Indicate Their Involvement in Host Recognition” (PLoS ONE, 2012).
“And” between values parts separate entries of the source, which are not always exact repeats. Identical values can stand only once. Like-named read-outs stand apart in the source and are kept apart here. Blank lines part the entries; values can stand above or below the compound they belong to.

Tests used:
AlinCSP1 = AlinCSP1 (Adelphocoris lineolatus, UniProt J7EJ71); experiment: biochemical; type: binding
Chain of AlinCSP1 (J7EJ71 entry or part of it): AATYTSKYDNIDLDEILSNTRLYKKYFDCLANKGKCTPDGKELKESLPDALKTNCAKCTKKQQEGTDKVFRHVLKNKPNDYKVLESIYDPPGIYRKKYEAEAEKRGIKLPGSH
Method: (§1) Fluorescence binding assays were performed on an F-380 fluorescence spectrophotometer (Tianjin, China) in a 1 cm light path quartz cuvette. The slit width used for excitation and emission was both 10 nm. The fluorescent probe N-phenyl-1-naphthylamine (1-NPN) was dissolved in methanol with a 1 mM stock solution. 1-NPN was excited at 337 nm and emission spectra were recorded between 390 nm and 530 nm.
(§2) All values reported were obtained from three independent measurements.
(§3) For determining binding constants, the intensity values corresponding to the maximum fluorescence emission were plotted against free ligand concentration. Bound ligand was evaluated from the values of fluorescence intensity assuming the protein was 100% active, with a stoichiometry of 1∶1 protein:ligand at saturation. The curves were linearized using Scatchard Plot.

AlinCSP3 = AlinCSP3 (Adelphocoris lineolatus, UniProt E7BLG4); experiment: biochemical; type: binding
Chain of AlinCSP3 (E7BLG4 entry or part of it): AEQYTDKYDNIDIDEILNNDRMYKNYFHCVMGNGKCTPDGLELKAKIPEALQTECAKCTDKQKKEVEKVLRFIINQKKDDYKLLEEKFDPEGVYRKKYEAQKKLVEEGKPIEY
Method: as §1, §2, §3

AlinCSP2 = AlinCSP2 (Adelphocoris lineolatus, UniProt E7BLG5); experiment: biochemical; type: binding
Chain of AlinCSP2 (E7BLG5 entry or part of it): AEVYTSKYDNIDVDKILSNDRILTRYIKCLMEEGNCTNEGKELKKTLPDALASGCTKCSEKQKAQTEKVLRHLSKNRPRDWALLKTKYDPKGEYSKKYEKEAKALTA
Method: as §1, §2, §3

A. lineolatus antennae = experiment: Electroantennogram (EAG) recordings; design: species or system Adelphocoris lineolatus; details: normalized to 2-octanone; for EAG response in words: male and female adult antennae, 10% (v/v) in paraffin oil, good ligand = more than 50% of 2-octanone response; for EAG response, male versus female antennae: Student t-test between sexes
Description: Electrophysiological (EAG) recordings from each sex of adult individuals were made using Ag-AgCl glass pipette electrodes filled with 3 M KCl solution [69], [70]. The insects were anaesthetized by chilling, the antenna was amputated at the base and the tip of the antenna was cut off. The excised antenna was mounted between the electrodes by one teardrop of Spectra R360 electrically conductive gel (Syntech, Netherlands). The base of the antenna was connected to the reference electrode, while the terminal of tip-cut off antenna was connected to the recording electrode. An air stimulus controller CS-55 (Syntech, Netherlands) was used for air and chemical stimulants delivery with a constant flow of 10 ml/second flowed continuously over the antenna through the open end of the glass tube, which was positioned 1 cm from the antenna.
Twenty microliters of tested chemicals (100 µl/ml, 10% (v/v) dilution in paraffin oil except the hexadecanoic acid dissolved in hexane with 100 µg/ml) were applied to filter paper strips (1.5 cm×4 cm, Whatman No.1), and the solvent was allowed to evaporate for 30 sec before the paper strip was inserted into the glass Pasteur pipette cartridge (10 cm long, Fisher Scientific, Pittsburgh, Pennsylvania, USA). The chemicals were tested randomly, stimulus duration time was 0.5 second and an interval of at least 30 seconds was taken between stimulations for antennal recovery. Chemical odorants used for the EAG recordings are the same as used in the binding assays. […] The paraffin oil (Fluka, Buchs, Switzerland) was used to dissolve the chemicals and treated as control compound [71]. Each chemical was tested against six individual male and female antennae, and each antenna was tested three times. The signals were passed through a high impedance amplifier (CS-05 model, Syntech, the Netherlands), EAG responses were initially measured in millivolts (peak height of depolarization) and then converted to normalized responses by the Syntech EAG 2000 program (Syntech, the Netherlands). Response to the solvent control was subtracted from all normalized response and the normalized EAG responses were expressed as a percentage to the reference compound response. All results are presented as mean (±SE) normalized EAG responses. EAG responses between male and female individuals were compared with the Student t-test using SAS software.

[1] = 1-NPN and protein at 2 µM, 50 mM Tris-HCl pH 7.4, KD calculated from IC50, mean of three measurements, read-out: KD (µM) AlinCSP1
[2] = 1-NPN and protein at 2 µM, 50 mM Tris-HCl pH 7.4, KD calculated from IC50, mean of three measurements, read-out: KD (µM) AlinCSP3
[3] = 1-NPN and protein at 2 µM, 50 mM Tris-HCl pH 7.4, KD calculated from IC50, mean of three measurements, read-out: KD (µM) AlinCSP2
[4] = u.d. = KD not calculated because IC50>50 µM, read-out: KD (µM) AlinCSP1, given as u.d.
[5] = u.d. = KD not calculated because IC50>50 µM, read-out: KD (µM) AlinCSP2, given as u.d.
[6] = KD (µM) AlinCSP1, 1-NPN and protein at 2 µM, 50 mM Tris-HCl pH 7.4, KD calculated from IC50, mean of three measurements
[7] = KD (µM) AlinCSP3, 1-NPN and protein at 2 µM, 50 mM Tris-HCl pH 7.4, KD calculated from IC50, mean of three measurements
[8] = KD (µM) AlinCSP2, 1-NPN and protein at 2 µM, 50 mM Tris-HCl pH 7.4, KD calculated from IC50, mean of three measurements
[9] = u.d. = KD not calculated because IC50>50 µM, read-out: KD (µM) AlinCSP3, given as u.d.
[10] = KD (µM) AlinCSP1, given as u.d., u.d. = KD not calculated because IC50>50 µM
[11] = KD (µM) AlinCSP2, given as u.d., u.d. = KD not calculated because IC50>50 µM
[12] = KD (µM) AlinCSP3, given as u.d., u.d. = KD not calculated because IC50>50 µM

Structure (SMILES): CC/C=C\CCO [(Z)-3-Hexen-1-ol]
EAG response in words (A. lineolatus antennae): elicited significant antennal responses from both male and female
Kd (AlinCSP1; [6]): 12.5 ± 2.32 µM
Kd (AlinCSP3; [7]): 16.3 ± 1.98 µM
Kd (AlinCSP2; [8]): 15.1 ± 1.79 µM

Structure (SMILES): Cc1ccc(C=O)cc1C [3,4-Dimethyl-benzaldehe, 3,4-Dimethyl-benzaldehyde]
EAG response, male versus female antennae (A. lineolatus antennae): significantly higher EAG responses from female antennae than from male antennae
Kd (AlinCSP1; [4]): > 50 µM
Kd (AlinCSP3; [9]): > 50 µM
Kd (AlinCSP2; [5]): > 50 µM

Structure (SMILES): C=CC(=O)OCCCC [Butyl acrylate]
Kd (AlinCSP1; [6]): 38.5 ± 1.69 µM
Kd (AlinCSP3; [7]): 40.2 ± 2.88 µM
Kd (AlinCSP2; [8]): 28.1 ± 2.37 µM

Structure (SMILES): CC1(C)[C@@H]2CC[C@@]1(C)[C@H](O)C2 (racemic) [Isoborneol]
Kd (AlinCSP1; [6]): 24.2 ± 1.42 µM
Kd (AlinCSP3; [7]): 28.6 ± 1.68 µM
Kd (AlinCSP2; [8]): 21.1 ± 2.04 µM

Structure (SMILES): CC1=CC=C(C(C)C)CC1 [α-Terpinene]
Kd (AlinCSP1; [10]): > 50 µM
Kd (AlinCSP3; [7]): 45.5 ± 2.06 µM
Kd (AlinCSP2; [11]): > 50 µM

Structure (SMILES): C=C1CCC2CC1C2(C)C (stereo not drawn) [β-Pinene]
EAG response in words (A. lineolatus antennae): failed to elicit high EAG response
Kd (AlinCSP1; [6]): 7.07 ± 1.41 µM
Kd (AlinCSP3; [7]): 12.4 ± 2.09 µM
Kd (AlinCSP2; [8]): 11.1 ± 1.91 µM

Structure (SMILES): CC(C)=CCC/C(C)=C/C=O [Citral]
Kd (AlinCSP1; [10]): > 50 µM
Kd (AlinCSP3; [12]): > 50 µM
Kd (AlinCSP2; [11]): > 50 µM

Structure (SMILES): C/C1=C\CC/C(C)=C/CC(C)(C)/C=C/C1 [α-Humulene]
EAG response in words (A. lineolatus antennae): no notable EAG response
Kd (AlinCSP1; [1]): 9.96 ± 0.89 µM
Kd (AlinCSP3; [2]): 8.94 ± 2.97 µM
binding to AlinCSP2 in words (AlinCSP2): failed to bind with AlinCSP2
Kd (AlinCSP2; [5]): > 50 µM

Structure (SMILES): c1ccc2[nH]ccc2c1 [Indole]
Kd (AlinCSP1; [6]): 27.1 ± 1.91 µM
Kd (AlinCSP3; [7]): 24.6 ± 2.16 µM
Kd (AlinCSP2; [8]): 22.4 ± 2.01 µM

Structure (SMILES): C=CC(C)(O)CCC=C(C)C (centres unmarked) [Linalool]
Kd (AlinCSP1; [10]): > 50 µM
Kd (AlinCSP3; [12]): > 50 µM
Kd (AlinCSP2; [8]): 46.2 ± 2.35 µM

Structure (SMILES): CCCCCCCCCCCCCCO [Tetradecanol]
Kd (AlinCSP1; [4]): > 50 µM
Kd (AlinCSP3; [9]): > 50 µM
Kd (AlinCSP2; [3]): 35.8 ± 3.01 µM

Structure (SMILES): C=C(C)[C@H]1CC=C(C)CC1 [Limonene]
Kd (AlinCSP1; [4]): > 50 µM
Kd (AlinCSP3; [9]): > 50 µM
Kd (AlinCSP2; [5]): > 50 µM

Second part, led by results:

Kd (AlinCSP1; [1]): 25.3 µM and 43.2 µM
Kd (AlinCSP3; [2]): 38.3 µM and 35.3 µM
Kd (AlinCSP2; [3]): 45.3 µM and 38.3 µM
Structure (SMILES): CCCCCCC(=O)OCC [Ethyl heptanoate]

Kd (AlinCSP1; [4]): > 50 µM
Kd (AlinCSP3; [2]): 39.5 ± 1.91 µM
Kd (AlinCSP2; [5]): > 50 µM
Structure (SMILES): CCCCCCC(C)=O [2-Octanone]

Kd (AlinCSP1; [4]): > 50 µM
Kd (AlinCSP3; [9]): > 50 µM
Kd (AlinCSP2; [5]): > 50 µM
Structure (SMILES): CCCCC(CC)CO (centres unmarked) [2-Ethyl-1-hexanol]

Kd (AlinCSP1; [4]): > 50 µM
Kd (AlinCSP3; [9]): > 50 µM
Kd (AlinCSP2; [5]): > 50 µM
Structure (SMILES): CCCCCCCCCC(C)O (centres unmarked) [2-Undecanol]

Kd (AlinCSP1; [4]): > 50 µM
Kd (AlinCSP3; [9]): > 50 µM
Kd (AlinCSP2; [5]): > 50 µM
Structure (SMILES): CCCCCCCCCCCC=O [Dodecanal]

Kd (AlinCSP1; [4]): > 50 µM
Kd (AlinCSP3; [2]): 43.5 ± 0.99 µM
Kd (AlinCSP2; [5]): > 50 µM
Structure (SMILES): CC(C)=CCCC(C)CCO (stereo not drawn) [(-)-β-Citronellol]

Kd (AlinCSP1; [1]): 7.37 ± 2.49 µM
Kd (AlinCSP3; [2]): 12.2 ± 1.82 µM
Kd (AlinCSP2; [3]): 15.8 ± 1.68 µM
Structure (SMILES): CC/C=C\CCOC(C)=O [(Z)-3-Hexenyl acetate]
EAG response, male versus female antennae (A. lineolatus antennae): significantly higher EAG responses from female antennae than from male antennae
EAG response in words (A. lineolatus antennae): only elicited a high EAG response in the female

Kd (AlinCSP1; [1]): 5.42 ± 0.93 µM
Kd (AlinCSP3; [2]): 10.7 ± 1.64 µM
Kd (AlinCSP2; [3]): 13 ± 1.72 µM
Structure (SMILES): C=CC(=C)CCC=C(C)C [Myrcene]
EAG response in words (A. lineolatus antennae): failed to elicit high EAG response

Kd (AlinCSP1; [4]): > 50 µM
Kd (AlinCSP3; [9]): > 50 µM
Kd (AlinCSP2; [3]): 39.5 ± 2.11 µM
Structure (SMILES): CCCCCCC(C)O (centres unmarked) [2-Octanol]

Kd (AlinCSP1; [4]): > 50 µM
Kd (AlinCSP3; [2]): 46.2 ± 2.76 µM
Kd (AlinCSP2; [5]): > 50 µM
Structure (SMILES): CCCCCCCCCCCCCC [Tetradecane]

Kd (AlinCSP1; [1]): 21.5 ± 1.17 µM
Kd (AlinCSP3; [2]): 25.5 ± 1.67 µM
Kd (AlinCSP2; [3]): 26.4 ± 1.87 µM
Structure (SMILES): CCCCC/C=C\CCO [(Z)-3-Nonen-1-ol]

Kd (AlinCSP1; [1]): 43.6 ± 1.11 µM
Kd (AlinCSP3; [9]): > 50 µM
Kd (AlinCSP2; [5]): > 50 µM
Structure (SMILES): CCCCCCCCC=O [Nonanal]
